Earlier results as cited in patent publication US7300768B2 (Saladax Biomedical Inc., priority 2004, dated 2007).

Conditions: imatinib and its salts; Gleevec package insert, Pindolia et al.

Cc1ccc(NC(=O)c2ccc(CN3CCN(C)CC3)cc2)cc1Nc1nccc(-c2cccnc2)n1 [imatinib]
degree of intra- and inter-individual pharmacokinetic variability: four fold
